Consider seven compounds from BindingDB's records for doi:10.1016/j.bioorg.2016.08.009 (China Pharmaceutical University, 2016).

SMILES strings stand for the structures.

The target of this assay is T1, Bromodomain-containing protein 4 [44-168] (Human, UniProt O60885).
T1 construct: 44-168
Briefly: BRD4-BD1 Binding Assay. The conditions noted are these: 25 °C. As to the method:
11 compounds were evaluated against BRD4-BD1 in vitro with compound 28a as the reference compound. BRD4 (44-168 aa) was bought from Active Motif. After preparing 1× assay buffer (modified HEPES Buffer), target compounds were transferred to assay plate by Echo, and the final concentration of DMSO solution was 0.1%. Then the preparation of protein solution and substrate solution in 1× assay buffer was performed. After that, 5 µL of protein solution was transferred to assay plate and incubated at room temperature for 15 min. The protein concentration was 5 nM. Then 5 µL of substrate solution was added to each well to start reaction with an incubation period for 60 min at room temperature. Finally, 15 µL acceptor and donor solution were added, followed by another incubation period for 60 min at room temperature under subdued light.

One may read the IC50 as the concentration needed to halve the response being measured. As for `Cc1noc(C)c1-c1ccc2c(c1)N(C1CCCC1)[C@H](C)C(=O)N2` [4(R)-4-cyclopentyl-6-(3,5-dimethylisoxazol-4-yl)-3-methyl-3,4-dihydroquinoxalin 2(1H)-one (5], the IC50 is 0.37 µM.

In the case of `Cc1noc(C)c1-c1ccc2c(c1)N(Cc1ccccc1)C(CO)C(=O)N2` [8(R)-4-benzyl-6-(3,5-dimethylisoxazol-4-yl)-3-(hydroxymethyl)-3,4-dihydroquinoxalin-2(1H)-one (5h)], the IC50 worked out at 0.65 µM.

In turn, `COc1ccc(CN2c3cc(-c4c(C)noc4C)ccc3NC(=O)C2C)cc1` [2(R)-6-(3,5-dimethylisoxazol-4-yl)-4-(4-methoxybenzyl)-3-methyl-3,4-dihydroquinoxalin-2(1H)-one (5b)] yielded an IC50 of 0.16 µM.

Compound `CC[C@@H]1C(=O)Nc2ccc(-c3c(C)noc3C)cc2N1Cc1ccccc1` [(R)-4-benzyl-6-(3,5-dimethylisoxazol-4-yl)-3-ethyl-3,4-dihydroquinoxalin-2(1H)-one (5i)] had an IC50 of 0.073 µM.

In the case of `Cc1noc(C)c1-c1ccc2c(c1)N(Cc1ccc(Cl)cc1)CC(=O)N2` [4-(4-Chlorobenzyl)-6-(3,5-dimethylisoxazol-4-yl)-3,4-dihydroquinoxalin-2(1H)-one (5k)], the IC50 was determined as 0.5 µM.

For the compound `Cc1noc(C)c1-c1ccc2c(c1)N(Cc1ccccc1)[C@H](Cc1ccccc1)C(=O)N2` [(R)-3,4-dibenzyl-6-(3,5-dimethylisoxazol-4-yl)-3,4-dihydroquinoxalin-2(1H)-one (5j)], the IC50 amounted to 0.151 µM.

`COc1ccc(CN2c3cc(-c4c(C)noc4C)ccc3N(C)C(=O)[C@H]2C)cc1` [(R)-6-(3,5-dimethylisoxazol-4-yl)-4-(4-methoxybenzyl)-1,3-dimethyl-3,4-dihydroquinoxalin-2(1H)-one (8)] displayed an IC50 of 0.22 µM. The IC50 values of the last two compounds are within 1.5-fold of each other.
